Source: patent publication US11591326B2, “Inhibitors of protein arginine methyltransferase 5 (PRMT5), pharmaceutical products thereof, and methods thereof” (PHARMABLOCK SCIENCES (NANJING), INC., priority 2018, dated 2023)

Target: Human recombinant PRMT5 in complex with human recombinant MEP50 (Homo sapiens (Human), UniProt O14744)
Test: PRMT5/MEP50 AlphaLISA enzyme inhibitory assay
Type: biochemical
Settings: PRMT5/MEP50 25 nM, SAM 10 μM, Biotin-H4 peptide 30 nM
Description: Human recombinant PRMT5 in complex with human recombinant MEP50, co-expressed in an insect cell/baculovirus expression system was purchased from Reaction Biology (Malvern, Pa.). […] Anti-H4R3-Me AlphaLISA acceptor beads and Streptavidin labeled AlphaLISA donor beads were obtained from PerkinElmer (Waltham, Mass.). S-adenosylmethionine (SAM), Tween20, dimethylsulfoxide (DMSO), and Tris buffer were obtained from Sigma at the highest level of purity available.
General Procedure for PRMT5/MEP50 AlphaLISA Enzyme Inhibitory Assays: Assays were performed in the buffer consisting of 50 mM Tris, pH 8.5, 5 mM MgCl2, 50 mM NaCl with 0.01% Tween20 and 1 mM DTT added right before the assay. 2.5 μL of compound solution in the assay buffer with 4% DMSO and 5 μL of PRMT5/MRP50 complex/SAM mixture solution in the assay buffer which was pre-incubated for 30 minutes were added into a white low volume 384 well microtiter plate. This mixture solution was incubated for 15 minutes with gentle shaking at room temperature. Methyl transfer reaction was initiated by adding 2.5 μL of Biotin-H4 (1-21) peptide substrate solution in the assay buffer. Final concentrations of PRMT5/MEP50, SAM, Biotin-H4 peptide substrate, and DMSO were 25 nM, 10 μM, 30 nM, and 1%, respectively. The reaction was allowed to perform for 120 minutes in dark with gentle shaking at room temperature after which 5 μL of Anti-H4R3-Me AlphaLISA acceptor beads in detection buffer from the manufacturer was added into the reaction mixture followed by incubation for 60 minutes. 10 μL of Streptavidin labeled AlphaLISA donor beads in detection buffer was added into the mixture followed by 30 minute incubation. Final acceptor and donor beads concentrations were 10 μg/mL. Plates were read on an Envision multimode plate reader from PerkinElmer (Waltham Mass., USA) with an excitation wavelength of 680 nm and emission wavelength of 615 nm. IC50 values of inhibitors were obtained by fitting the fluorescence intensity vs inhibitor concentrations in a sigmoidal dose-response curve (variable slopes, four parameters) using Prism 7 (La Jolla, Calif.).

Human recombinant PRMT5 in complex with human recombinant MEP50, sequence (O14744 whole entry): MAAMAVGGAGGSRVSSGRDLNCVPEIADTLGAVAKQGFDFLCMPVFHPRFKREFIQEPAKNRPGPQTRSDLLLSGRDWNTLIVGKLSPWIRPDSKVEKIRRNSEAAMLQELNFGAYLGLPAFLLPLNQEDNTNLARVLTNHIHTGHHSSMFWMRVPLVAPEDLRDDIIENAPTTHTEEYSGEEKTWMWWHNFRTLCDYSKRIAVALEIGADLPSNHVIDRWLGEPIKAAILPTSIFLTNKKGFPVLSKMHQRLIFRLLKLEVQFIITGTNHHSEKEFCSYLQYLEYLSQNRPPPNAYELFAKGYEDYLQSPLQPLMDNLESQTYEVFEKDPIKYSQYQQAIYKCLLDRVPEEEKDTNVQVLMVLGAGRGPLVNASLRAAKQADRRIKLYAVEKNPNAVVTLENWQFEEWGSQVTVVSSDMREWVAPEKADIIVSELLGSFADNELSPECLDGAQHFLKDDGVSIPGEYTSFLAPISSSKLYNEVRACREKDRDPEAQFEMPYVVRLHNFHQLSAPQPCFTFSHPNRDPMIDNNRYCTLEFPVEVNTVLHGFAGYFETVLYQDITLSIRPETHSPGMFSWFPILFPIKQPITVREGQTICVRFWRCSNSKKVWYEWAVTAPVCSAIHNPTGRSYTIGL
Human recombinant PRMT5 in complex with human recombinant MEP50, sequence (Q9BQA1 whole entry partner): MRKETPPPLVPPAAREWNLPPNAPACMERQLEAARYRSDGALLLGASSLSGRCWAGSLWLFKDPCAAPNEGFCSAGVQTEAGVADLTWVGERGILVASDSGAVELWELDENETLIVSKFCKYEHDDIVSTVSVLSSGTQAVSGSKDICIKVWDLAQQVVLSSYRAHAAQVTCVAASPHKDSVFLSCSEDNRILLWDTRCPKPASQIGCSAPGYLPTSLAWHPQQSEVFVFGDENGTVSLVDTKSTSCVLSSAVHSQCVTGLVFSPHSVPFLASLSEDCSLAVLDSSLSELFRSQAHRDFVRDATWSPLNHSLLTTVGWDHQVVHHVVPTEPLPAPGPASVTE

IC50	Compound
14 nM	CC(=O)N1CCC(Nc2ccc3c(c2)C(=O)N(CC(O)CN2CCc4ccccc4C2)CC3)CC1 (racemic) [Compound 24, 7-((1-acetylpiperidin-4-yl)amino)-2-(3-(3,4-dihydroisoquinolin-2(1H)-yl)-2-hydroxypropyl)-3,4-dihydroisoquinolin-1(2H)-one]
13 nM	O=C1c2cc(Nc3ccnnc3)ccc2OCCN1CC(O)CN1CCc2ccccc2C1 (racemic) [Compound 30, 4-(3-(3,4-dihydroisoquinolin-2(1H)-yl)-2-hydroxypropyl)-7-(pyridazin-4-ylamino)-3,4-dihydrobenzo[f][1,4]oxazepin-5(2H)-one]
97 nM	O=C1c2cc(NC3COC3)ccc2CCN1CC(O)CN1CCc2ccccc2C1 (stereo not shown) [Compound 1, 2-(3-(3,4-dihydroisoquinolin-2(1H)-yl)-2-hydroxypropyl)-7-(oxetan-3-ylamino)-3,4-dihydroisoquinolin-1(2H)-one]
159 nM	CC(=O)N1CCC(Nc2cc(F)c3c(c2)C(=O)N(C[C@@H](O)CN2CCc4ccccc4C2)CCO3)CC1 [Compound 2b, (S)-7-((1-acetylpiperidin-4-yl)amino)-4-(3-(3,4-dihydroisoquinolin-2(1H)-yl)-2-hydroxypropyl)-9-fluoro-3,4-dihydrobenzo[f][1,4]oxazepin-5(2H)-one]
568 nM	O=c1c2cc(NC3COC3)ccc2ncn1CC(O)CN1CCc2ccccc2C1 (stereo not shown) [Compound 3, 3-(3-(3,4-dihydroisoquinolin-2(1H)-yl)-2-hydroxypropyl)-6-(oxetan-3-ylamino)quinazolin-4(3H)-one]
303 nM	O=c1c2cc(NC3COC3)ccc2ccn1CC(O)CN1CCc2ccccc2C1 (stereo not shown) [Compound 4, 2-(3-(3,4-dihydroisoquinolin-2(1H)-yl)-2-hydroxypropyl)-7-(oxetan-3-ylamino)isoquinolin-1(2H)-one]
131 nM	O=C1c2cc(NC3COC3)ccc2OCCN1CC(O)CN1CCc2ccccc2C1 (stereo not shown) [Compound 5, 4-(3-(3,4-dihydroisoquinolin-2(1H)-yl)-2-hydroxypropyl)-7-(oxetan-3-ylamino)-3,4-dihydrobenzo[f][1,4]oxazepin-5(2H)-one]
77 nM	CC(=O)N1CC(Nc2ccc3c(c2)C(=O)N(CC(O)CN2CCc4ccccc4C2)CC3)C1 (stereo not shown) [Compound 6, 7-((1-acetylazetidin-3-yl)amino)-2-(3-(3,4-dihydroisoquinolin-2(1H)-yl)-2-hydroxypropyl)-3,4-dihydroisoquinolin-1(2H)-one]
232 nM	CS(=O)(=O)N1CC(Nc2ccc3c(c2)C(=O)N(C[C@@H](O)CN2CCc4ccccc4C2)CC3)C1 [Compound 8, (S)-2-(3-(3,4-dihydroisoquinolin-2(1H)-yl)-2-hydroxypropyl)-7-((1-(methylsulfonyl)azetidin-3-yl)amino)-3,4-dihydroisoquinolin-1(2H)-one]
2440 nM	CN1CC(Nc2ccc3c(c2)C(=O)N(C[C@@H](O)CN2CCc4ccccc4C2)CC3)C1 [Compound 9, (S)-2-(3-(3,4-dihydroisoquinolin-2(1H)-yl)-2-hydroxypropyl)-7-((1-methylazetidin-3-yl)amino)-3,4-dihydroisoquinolin-1(2H)-one]
1010 nM	O=C1c2cc(N[C@H]3CCOC3)ccc2CCN1C[C@@H](O)CN1CCc2ccccc2C1 [Compound 10, 2-((S)-3-(3,4-dihydroisoquinolin-2(1H)-yl)-2-hydroxypropyl)-7-(((S)-tetrahydrofuran-3-yl)amino)-3,4-dihydroisoquinolin-1(2H)-one]
462 nM	O=C1c2cc(N[C@@H]3CCOC3)ccc2CCN1C[C@@H](O)CN1CCc2ccccc2C1 [Compound 11, 2-((S)-3-(3,4-dihydroisoquinolin-2(1H)-yl)-2-hydroxypropyl)-7-(((R)-tetrahydrofuran-3-yl)amino)-3,4-dihydroisoquinolin-1(2H)-one]
29 nM	Cn1cc(Nc2ccc3c(c2)C(=O)N(CC(O)CN2CCc4ccccc4C2)CC3)cn1 (stereo not shown) [Compound 12]
235 nM	Cn1cc(Nc2ccc3c(c2)C(=O)N(C[C@@H](O)CN2CCc4ccccc4C2)CC3)cn1 [Compound 12b, (S)-2-(3-(3,4-dihydroisoquinolin-2(1H)-yl)-2-hydroxypropyl)-7-((1-methyl-1H-pyrazol-4-yl)amino)-3,4-dihydroisoquinolin-1(2H)-one]
578 nM	Cn1cc(-c2ccc3c(c2)C(=O)N(C[C@@H](O)CN2CCc4ccccc4C2)CC3)cn1 [Compound 13, (S)-2-(3-(3,4-dihydroisoquinolin-2(1H)-yl)-2-hydroxypropyl)-7-(1-methyl-1H-pyrazol-4-yl)-3,4-dihydroisoquinolin-1(2H)-one]
158 nM	O=C1c2cc(-c3cncnc3)ccc2CCN1CC(O)CN1CCc2ccccc2C1 (stereo not shown) [Compound 14, 2-(3-(3,4-dihydroisoquinolin-2(1H)-yl)-2-hydroxypropyl)-7-(pyrimidin-5-yl)-3,4-dihydroisoquinolin-1(2H)-one]
217 nM	CC1(C)CN(CC(O)CN2CCc3ccccc3C2)C(=O)c2cc(NC3COC3)ccc21 (stereo not shown) [Compound 15, 2-(3-(3,4-dihydroisoquinolin-2(1H)-yl)-2-hydroxypropyl)-4,4-dimethyl-7-(oxetan-3-ylamino)-3,4-dihydroisoquinolin-1(2H)-one]
447 nM	O=C1c2cc(NC3COC3)cnc2CCN1CC(O)CN1CCc2ccccc2C1 (stereo not shown) [Compound 16, 6-(3-(3,4-dihydroisoquinolin-2(1H)-yl)-2-hydroxypropyl)-3-(oxetan-3-ylamino)-7,8-dihydro-1,6-naphthyridin-5(6H)-one]
248 nM	CC(=O)N1CCC(Nc2cc3c(cc2F)OCCN(C[C@H](O)CN2CCc4ccccc4C2)C3=O)CC1 [Compound 17a, (R)-7-((1-acetylpiperidin-4-yl)amino)-4-(3-(3,4-dihydroisoquinolin-2(1H)-yl)-2-hydroxypropyl)-8-fluoro-3,4-dihydrobenzo[f][1,4]oxazepin-5(2H)-one]
722 nM	CC(=O)N1CCC(Nc2cc3c(cc2F)OCCN(C[C@@H](O)CN2CCc4ccccc4C2)C3=O)CC1 [Compound 17b, (S)-7-((1-acetylpiperidin-4-yl)amino)-4-(3-(3,4-dihydroisoquinolin-2(1H)-yl)-2-hydroxypropyl)-8-fluoro-3,4-dihydrobenzo[f][1,4]oxazepin-5(2H)-one]
2220 nM	O=C1c2cc(NC3CCOCC3)cnc2CCN1CC(O)CN1CCc2ccccc2C1 (stereo not shown) [Compound 18, 6-(3-(3,4-dihydroisoquinolin-2(1H)-yl)-2-hydroxypropyl)-3-((tetrahydro-2H-pyran-4-yl)amino)-7,8-dihydro-1,6-naphthyridin-5(6H)-one]
623 nM	CC(=O)N1CCC(Nc2cnc3c(c2)C(=O)N(CC(O)CN2CCc4ccccc4C2)CC3)CC1 (stereo not shown) [Compound 19, 3-((1-acetylpiperidin-4-yl)amino)-6-(3-(3,4-dihydroisoquinolin-2(1H)-yl)-2-hydroxypropyl)-7,8-dihydro-1,6-naphthyridin-5(6H)-one]
132 nM	Cn1cc(Nc2cnc3c(c2)C(=O)N(CC(O)CN2CCc4ccccc4C2)CC3)cn1 (stereo not shown) [Compound 20, 6-(3-(3,4-dihydroisoquinolin-2(1H)-yl)-2-hydroxypropyl)-3-((1-methyl-1H-pyrazol-4-yl)amino)-7,8-dihydro-1,6-naphthyridin-5(6H)-one]
480 nM	CC1Cc2ccc(NC3COC3)cc2C(=O)N1CC(O)CN1CCc2ccccc2C1 (stereo not shown) [Compound 21, 2-(3-(3,4-dihydroisoquinolin-2(1H)-yl)-2-hydroxypropyl)-3-methyl-7-(oxetan-3-ylamino)-3,4-dihydroisoquinolin-1(2H)-one]
21 nM	O=C1c2cc(Nc3cnn(C4COC4)c3)ccc2CCN1CC(O)CN1CCc2ccccc2C1 (stereo not shown) [Compound 22, 2-(3-(3,4-dihydroisoquinolin-2(1H)-yl)-2-hydroxypropyl)-7-((1-(oxetan-3-yl)-1H-pyrazol-4-yl)amino)-3,4-dihydroisoquinolin-1(2H)-one]
61 nM	Cn1ccc(Nc2ccc3c(c2)C(=O)N(CC(O)CN2CCc4ccccc4C2)CC3)n1 (stereo not shown) [Compound 23, 2-(3-(3,4-dihydroisoquinolin-2(1H)-yl)-2-hydroxypropyl)-7-((1-methyl-1H-pyrazol-3-yl)amino)-3,4-dihydroisoquinolin-1(2H)-one]
19 nM	CC(=O)N1CCC(Nc2ccc3c(c2)C(=O)N(C[C@@H](O)CN2CCc4ccccc4C2)CC3)CC1 [Compound 24b, (S)-7-((1-acetylpiperidin-4-yl)amino)-2-(3-(3,4-dihydroisoquinolin-2(1H)-yl)-2-hydroxypropyl)-3,4-dihydroisoquinolin-1(2H)-one]
10 nM	O=C1c2cc(Nc3cnn(C4CCOCC4)c3)ccc2CCN1CC(O)CN1CCc2ccccc2C1 (stereo not shown) [Compound 25, 2-(3-(3,4-dihydroisoquinolin-2(1H)-yl)-2-hydroxypropyl)-7-((1-(tetrahydro-2H-pyran-4-yl)-1H-pyrazol-4-yl)amino)-3,4-dihydroisoquinolin-1(2H)-one]
